Measured values as given in patent US7754272B2, “Local drug delivery” (Biocompatibles IK Limited, priority 1999, dated 2010).
In brackets after ≈: the same amount, converted by molar mass.

What was measured:
[1] = Taxol loading of cross-linked polymer discs; type: physicochemical
Procedure: Polymers of the same compositions as used in example 8 are tested for taxol (paclitaxel) loading. Twenty discs were cut out of each membrane of polymer, placed on pieces of PTFE in petri dishes and dried in an oven at 60° C. for an hour. When cool the discs were placed into a solution of taxol and allowed to swell in a water bath at 37° C. for half an hour. The taxol solution was decanted off, the discs labelled and placed on the PTFE and allowed to air dry. The discs were then tested for determining total loadings.

[2] = Dexamethasone phosphate and dexamethasone loading and elution, pre-coated stents; conditions: for loading per stent: 20 C., 30 minutes
[3] = Etoposide/polymer premix coated stents, loading and release; type: physicochemical
Procedure: In this example, rather than precoating the polymer according to reference Example 1, followed by loading of drug, a premix of drug and crosslinkable polymer is formed and coated onto a stent. The crosslinkable polymer is identical to that used in Reference Example 1, 0.932 g polymer being dissolved into a 1:1 ethanol:water (by volume) mixture (50 ml). […] The coated stents were cured overnight at a temperature in the range 50 to 70 C.
The amount of drug loaded into the stents was determined by elution into an ethanol:water 50:50 (volume) mixture. […] The amount of etoposide eluted into ethanol:water is in this range.
The release rate, from the results, for the stent coated with a polymer crosslinked in the presence of drug indicate that the release of drug may not be slowed down as compared to the alternative system, where precoated stents are contacted with a solution of drug.

[4] = cited from earlier work
[5] = Vitamin B12 loading of MBA-crosslinked HEMA-PC:LM polymers; type: physicochemical
Procedure: Polymers based on HEMA-PC:LM 1:2 with varying degrees of MBA crosslinker were tested to determine the effect of crosslinker on release of vitamin B12. The polymers were also tested for their water content when swollen to equilibrium in water at 37° C. The loading levels of vitamin B12 are recorded in table 2 below.
Also recorded in table 2 are similar results for MBA crosslinked copolymers based upon 1:1 copolymers of HEMA-PC and LM.

[6] = Drug loading of HEMA-PC:HEMA:MMA:MBA crosslinked membrane; type: physicochemical; conditions: HEMA-PC:HEMA:MMA:MBA copolymer swollen in aqueous drug solution, room temperature, over night
From the text: The polymers including MBA were polymerised in situ to form crosslinked membranes. […] The crosslinked polymers were used to form “infinite slabs” type membranes, to simulate the coating on a stent. […] The loaded levels were established to be the following: […]

[7] = Ex vivo human saphenous vein model, angiopeptin loaded stents
Procedure: More extensive work was conducted on angiopeptin loaded stents, to mimic the in vivo environment. The further examples use an ex vivo human saphenous vein model (as described by Armstrong, J. et al 1998. A purfused organ culture model to investigate drug release from coronary stents, Northern General Hospital, Sheffield (in press). The stents (produced as in Reference Example 1 below) were loaded using aqueous solutions of angiopeptin labeled with ^125I by the chloramine T method, into which the stent was dipped for half an hour at 37 C. The loaded stents were then allowed to air dry for one hour. Stents were in inserted into the vein, expanded by balloon catheter, washed in 10 ml culture medium for 10 s then placed in the purpose-built organ culture chamber bathed in 30 ml culture medium. The chamber was then connected to a circuit and 100 ml culture medium (HEPES-buffered RPMI 1640 culture medium (LIFE) supplemented with penicillin ([…]) streptomycin (100 units/ml) and glutamine (2 mM)) at 70 ml/min, then removed after 1 hour or 24 hours. The stent was subsequently examined to determine the proportion of angiopeptin which has eluted, whilst the vessel immediately surrounding the stent was investigated to determine the proportion of eluted drug found in the vessel. The culture medium was also analysed as was the explanted stent for radio activity.

[8] = In vivo porcine coronary artery model, angiopeptin loaded stents
Procedure: Further work was conducted to investigate the ability of the angiopeptin loaded stents to deliver angiopeptin tissue in an in vivo, in a porcine coronary artery model. […] The levels of angiopeptin remaining in the arterial wall immediately surrounding the stent was determined as well as the level recovered in blood and urine.

[9] = Aspirin loading and release, pre-coated stents; type: physicochemical; conditions: for aspirin loaded: 15 mm stent, one hour, room temperature
From the text: Aspirin has anti platelet activity, which may be useful delivered locally from a stent. […] The solutions were used to load 15 mm stents having coatings produced according to Reference Example 1 (interior wall coating thickness around 350 nanometers, exterior wall coating thickness around 1400 nanometers). The stents were immersed in the aspirin solutions at room temperature for a period of one hour. The stent was removed from the solution, excess solution removed by gentle dabbing with absorbent tissue. Aspirin loading levels were determined by extracting the aspirin into 3 ml ethanol.

[10] = Roxithromycin loading and release, pre-coated stents; type: physicochemical
Procedure: Stents coated with polymer according to Reference Example 1 (15 mm) were loaded with roxithromycin from 5 g/l and 10 g/l solutions in ethanol or in ethanol:water 50:50 mixture. The level of loading of drug onto the stent was determined by elution from the stent into ethanol. […] The average loading for the 5 g/l solution was 58 μg per stent, whilst the 10 g/l solutions lead to loadings of around 70 μg for both solvent systems.
Stents loaded from the 10 g/l ethanolic solutions were subsequently contacted with phosphate buffered saline under gentle agitation and the release rate determined. […] The test was continued up to 48 hours, after which time 5 to 10% of roxithromycin remains in the coating.

## CC(=O)O[C@H]1C(=O)[C@@]2(C)[C@H]([C@H](OC(=O)c3ccccc3)[C@]3(O)C[C@H](OC(=O)[C@H](O)[C@@H](NC(=O)c4ccccc4)c4ccccc4)C(C)=C1C3(C)C)[C@]1(OC(C)=O)CO[C@@H]1C[C@@H]2O [taxol, paclitaxel]
[1]; Series 1, 1st polymer (Table 4 HEMA-PC:LM:Hpm:TMSPM 13:39:15:5)
  Total Loading (μg per disc): 35.2 μg per disc
[1]; Series 1, 2nd polymer (Table 4 53:39:15:5)
  Total Loading (μg per disc): 80 μg per disc
[1]; Series 1, 3rd polymer (Table 4 13:55:15:5)
  Total Loading (μg per disc): 15 μg per disc
[1]; Series 1, 4th polymer (Table 4 33:55:15:5)
  Total Loading (μg per disc): 18.1 μg per disc
[1]; Series 2, 1st polymer (Table 4 13:39:15:9)
  Total Loading (μg per disc): 51.7 μg per disc
[1]; Series 2, 2nd polymer (Table 4 33:39:15:9)
  Total Loading (μg per disc): 57 μg per disc
[1]; Series 2, 3rd polymer (Table 4 13:55:15:9)
  Total Loading (μg per disc): 18.6 μg per disc
[1]; Series 2, 4th polymer (Table 4 33:55:15:9)
  Total Loading (μg per disc): 10 μg per disc
[1]; Series 3, 1st polymer (Table 4 13:39:35:5)
  Total Loading (μg per disc): 55.2 μg per disc
[1]; Series 3, 2nd polymer (Table 4 33:39:35:5)
  Total Loading (μg per disc): 11.2 μg per disc
[1]; Series 3, 3rd polymer (Table 4 13:55:35:5)
  Total Loading (μg per disc): 5.4 μg per disc
[1]; Series 3, 4th polymer (Table 4 33:55:35:5)
  Total Loading (μg per disc): 25.3 μg per disc
[1]; Series 4, 1st polymer (Table 4 13:39:35:9)
  Total Loading (μg per disc): 23.8 μg per disc
[1]; Series 4, 2nd polymer (Table 4 33:39:35:9)
  Total Loading (μg per disc): 60.5 μg per disc
[1]; Series 4, 3rd polymer (Table 4 13:55:35:9)
  Total Loading (μg per disc): 24.3 μg per disc
[1]; Series 4, 4th polymer (Table 4 33:55:35:9)
  Total Loading (μg per disc): 64 μg per disc

## C[C@@H]1C[C@H]2[C@@H]3CCC4=CC(=O)C=C[C@]4(C)[C@@]3(F)[C@@H](O)C[C@]2(C)[C@@]1(O)C(=O)COP(=O)(O)O [dexamethasone phosphate, Dexamethasone phosphate]
[2]; 1.0 g/l in water
  loading per stent: 9 μg per stent
[2]; 2.0 g/l in water
  loading per stent: 14 µg
[2]; 5.0 g/l in water
  loading per stent: 20 µg
[2]; elution test
  time by which effectively all the drug is released: ≤ 1 h

## COc1cc([C@@H]2c3cc4c(cc3[C@@H](O[C@@H]3O[C@@H]5CO[C@@H](C)O[C@H]5[C@H](O)[C@H]3O)[C@H]3COC(=O)[C@H]23)OCO4)cc(OC)c1O [etoposide]
[3]; into 5 ml phosphate buffered saline
  time at which release plateaued: around 5 minutes
[3]; premix coated stent, eluted into ethanol:water 50:50
  average etoposide loading: around 12 μg per stent
[4]
  solubility in water: only slightly soluble in water

## vitamin B12
[5]; HEMA-PC:LM 1:1, crosslinker 0.28 mole %
  Vitamin B12 Load (mg/g polymer): 26.13 mg/g polymer
[5]; HEMA-PC:LM 1:1, crosslinker 0.5 mole %
  Vitamin B12 Load (mg/g polymer): 19.83 mg/g polymer
[5]; HEMA-PC:LM 1:1, crosslinker 1 mole %
  Vitamin B12 Load (mg/g polymer): 11.89 mg/g polymer
[5]; HEMA-PC:LM 1:1, crosslinker 2 mole %
  Vitamin B12 Load (mg/g polymer): 8.44 mg/g polymer
[5]; HEMA-PC:LM 1:1, crosslinker 5 mole %
  Vitamin B12 Load (mg/g polymer): 4.94 mg/g polymer
[5]; HEMA-PC:LM 1:2, crosslinker 0.28 mole %
  Vitamin B12 Load (mg/g polymer): 11.73 mg/g polymer
[5]; HEMA-PC:LM 1:2, crosslinker 0.5 mole %
  Vitamin B12 Load (mg/g polymer): 10.68 mg/g polymer
[5]; HEMA-PC:LM 1:2, crosslinker 1 mole %
  Vitamin B12 Load (mg/g polymer): 11.4 mg/g polymer
[5]; HEMA-PC:LM 1:2, crosslinker 2 mole %
  Vitamin B12 Load (mg/g polymer): 4.66 mg/g polymer
[5]; HEMA-PC:LM 1:2, crosslinker 5 mole %
  Vitamin B12 Load (mg/g polymer): 1.96 mg/g polymer
[5]; HEMA-PC:LM 1:2, crosslinker 10 mole %
  Vitamin B12 Load (mg/g polymer): 0 mg/g polymer
[6]
  Loading (mg/g polymer): 40 mg/g polymer

## rhodamine
[6]
  Loading (mg/g polymer): 85 mg/g polymer

## C[C@@H]1C[C@H]2[C@@H]3CCC4=CC(=O)C=C[C@]4(C)[C@@]3(F)[C@@H](O)C[C@]2(C)[C@@]1(O)C(=O)CO [dexamethasone, Dexamethasone]
[4]
  solubility in water: less water soluble than dexamethasone phosphate

## CC(C)[C@@H]1NC(=O)[C@H](CCCCN)NC(=O)[C@@H](Cc2c[nH]c3ccccc23)NC(=O)[C@H](Cc2ccc(O)cc2)NC(=O)[C@@H](NC(=O)[C@H](N)Cc2ccc3ccccc3c2)CSSC[C@@H](C(=O)N[C@H](C(N)=O)[C@@H](C)O)NC1=O [angiopeptin]
[7]; after 1 hour
  share of angiopeptin eluted from stent: 93%
  share of eluted drug in the surrounding vessel: 13.9%
[7]; after 24 hours
  share of angiopeptin eluted from stent: 97%
  share of eluted drug remaining in the vessel: 7.4%
[8]; 1 to 28 days
  share of detected angiopeptin located in tissue other than the heart: less than 1%
[8]; after 5 min
  angiopeptin in blood: 0.08 µg/mL
[8]; after 1 hour
  angiopeptin in urine: 0.29 µg/mL
  share of angiopeptin remaining on the stent: 9%
[8]; after 24 hours
  angiopeptin in blood: around 0.01 μg/ml
  share of angiopeptin remaining on the stent: 4%
[8]; after 7 days
  share of angiopeptin remaining on the stent: 1.5%
[8]; after 28 days
  angiopeptin in urine: 0.01 µg/mL
[8]; after one hour
  angiopeptin in blood compared with 5 min: about the same
[8]; arterial wall surrounding the stent, after 24 hours
  level of angiopeptin in tissue: around 400 pg/ml
[8]; at 7 to 28 days
  angiopeptin in blood: No angiopeptin could be found
[8]; at 1 hour
  share of released angiopeptin localised in the left anterior descending coronary artery: 84%
[8]; at 7 days
  level of angiopeptin in tissue: around 360 pg/ml
[8]; at 28 days
  level of angiopeptin in tissue: around 200 pg/ml

## CC(=O)Oc1ccccc1C(=O)O [aspirin, Aspirin]
[4]
  solubility in water: only partially soluble in water
[9]; 10 g/l in ethanol
  aspirin loaded: around 10 μg
[9]; 40 g/l in ethanol
  aspirin loaded: around 40 μg
[9]; into phosphate buffered saline, after about 1 hour
  share of drug eluted: around 90%

## CO[C@H]1C[C@@H]2CC[C@@H](C)[C@@](O)(O2)C(=O)C(=O)N2CCCC[C@H]2C(=O)O[C@H]([C@H](C)C[C@@H]2CC[C@@H](O)[C@H](OC)C2)CC(=O)[C@H](C)/C=C(\C)[C@@H](O)[C@@H](OC)C(=O)[C@H](C)C[C@H](C)/C=C/C=C/C=C/1C [Rapamycin]
[4]
  solubility in water: 5 µg/mL (≈ 5.47 µM)

## CC[C@H]1OC(=O)[C@H](C)[C@@H](O[C@H]2C[C@@](C)(OC)[C@@H](O)[C@H](C)O2)[C@H](C)[C@@H](O[C@@H]2O[C@H](C)C[C@H](N(C)C)[C@H]2O)[C@](C)(O)C[C@@H](C)/C(=N\OCOCCOC)[C@H](C)[C@@H](O)[C@]1(C)O [roxithromycin, Roxithromycin]
[4]
  solubility in water: substantially insoluble in water
[10]; 15 mm stent, 5 g/l solution
  average loading: 58 μg per stent
[10]; 15 mm stent, 10 g/l solutions, ethanol and ethanol:water 50:50
  loading: around 70 μg
[10]; PBS, gentle agitation, after 24 hours, loaded from 10 g/l ethanolic solution
  share of compound released: around half
